According to patent publication US10961238B2, “Modulators of hedgehog (Hh) signaling pathway” (E-THERAPEUTICS PLC, priority 2016, dated 2021):

The compounds below were run on C3H10T1/2 cells (assay: C3H assay: differentiation of C3H10T1/2 cells by mSHH, measurement of alkaline phosphatase). Conditions: Mus musculus, C3H 10T1/2; C3H10T1/2 cells stimulated with mSHH for 72 hours; alkaline phosphatase activity; read-out: IC50 Ranges.
Type: cell-based, mouse

IC50 [µM]	SMILES
0.01 to 0.1	CN(C(=O)C1CC(S(=O)(=O)N2CCC(c3c[nH]c4ncccc34)CC2)C1)C(C)(C)C (stereo not drawn) [Compound 278, N-tert-butyl-N-methyl-3-[4-(1H-pyrrolo [2,3-b]pyridin-3-yl)piperidin-1-yl]sulfonylcycl obutane-1-carboxamide]
1 to 10	COc1cccc(N(C)C(=O)N2CC(S(=O)(=O)N3CCC(c4c[nH]c5ncccc45)CC3)C2)c1 [Compound 279, N-(3-methoxyphenyl)-N-methyl-3-[4-(1H-pyrrolo [2,3-b]pyridin-3-yl)piperidin-1-yl]sulfonylaze-tidine-1-carboxamide]
1 to 10	O=C(Oc1ccc(F)cc1)N1CC(S(=O)(=O)N2CCC(c3ccncc3)CC2)C1 [Compound 280, (4-fluorophenyl) 3-(4-pyridin-4-ylpiperidin-1-yl) sulfonylaze-tidine-1-carboxylate]
1 to 10	COc1cccc(NC(=O)N2CC(S(=O)(=O)N3CCC(c4ccncc4)CC3)C2)c1 [Compound 281, N-(3-methoxyphenyl)-3-(4-pyridin-4-ylpiperidin-1-yl)sulfonylaze-tidine-1-carboxamide]
1 to 10	Cc1ccc(NC(=O)N2CC(S(=O)(=O)N3CCC(c4ccncc4)CC3)C2)cc1 [Compound 282, N-(4-methylphenyl)-3-(4-pyridin-4-ylpiperidin-1-yl)sulfonylaze-tidine-1-carboxamide]
0.1 to 1	CC(C)(C)OC(=O)N1CC(S(=O)(=O)N2CCC(c3nc4ccccc4s3)CC2)C1 [Compound 283, tert-butyl 3-[4-(1,3-benzothiazol-2-yl)piperidin-1-yl]sulfonylaze-tidine-1-carboxylate]
1 to 10	Cc1ccc(F)cc1NC(=O)N1CC(S(=O)(=O)N2CCC(c3ccncc3)CC2)C1 [Compound 286, N-(5-fluoro-2-methylphenyl)-3-(4-pyridin-4-ylpiperidin-1-yl)sulfonylaze-tidine-1-carboxamide]
1 to 10	O=S(=O)(C1CCC1)N1CCC(c2c[nH]c3ncccc23)CC1 [Compound 287, 3-(1-cyclobutylsulfonylpiperidin-4-yl)-1H-pyrrolo[2,3-b]pyridine]
0.01 to 0.1	CN(C(=O)[C@H]1C[C@@H](S(=O)(=O)N2CCC(c3c[nH]c4ncccc34)CC2)C1)C(C)(C)C [Compound 289, cis-N-tert-butyl-N-methyl-3-[[4-(1H-pyrrolo[2,3-b]pyridin-3-yl)-1-piperidyl]sulfonyl]cyclobutanecarboxamide]
0.1 to 1	CN(C(=O)[C@H]1C[C@H](S(=O)(=O)N2CCC(c3c[nH]c4ncccc34)CC2)C1)C(C)(C)C [Compound 290, trans-N-tert-butyl-N-methyl-3-[[4-(1H-pyrrolo[2,3-b]pyridin-3-yl)-1-piperidyl]sulfonyl]cyclobutanecarboxamide]
1 to 10	O=C(NCCS(=O)(=O)N1CCC(c2ccncc2)CC1)OC1CCCCC1 [Compound 291, cyclohexyl N-[2-(4-pyridin-4-ylpiperidin-1-yl)sulfonylethyl] carbamate]
0.01 to 0.1	O=C(NC1(C(F)(F)F)CC1)N1CC(S(=O)(=O)N2CCC(c3nc4ccccc4s3)CC2)C1 [Compound 293, 3-[4-(1,3-benzothiazol-2-yl)piperidin-1-yl]sulfonyl-N-[1-(trifluoromethyl)cyclopropyl] azetidine-1-carboxamide]
1 to 10	Cc1noc(C)c1NC(=O)[C@H]1C[C@@H](S(=O)(=O)N2CCC(c3ccncc3)CC2)C1 [Compound 295, cis-N-(3,5-dimethyl-1,2-oxazol-4-yl)-3-(4-pyridin-4-ylpiperidin-1-yl) sulfonylcyclobutane-1-carboxamide]
0.01 to 0.1	O=C(NC1(C(F)(F)F)CC1)[C@H]1C[C@@H](S(=O)(=O)N2CCC(c3c[nH]c4ncccc34)CC2)C1 [Compound 297, cis-3-[4-(1H-pyrrolo[2,3-b]pyridin-3-yl)piperidin-1-yl]sulfonyl-N-[1-(trifluoromethyl)cyclopropyl] cyclobutane-1-carboxamide]
1 to 10	CC(C)(C)OC(=O)N1CC(S(=O)(=O)N2CCC(c3nc4ccccc4[nH]3)CC2)C1 [Compound 299, tert-butyl 3-[4-(1H-benzimidazol-2-yl)piperidin-1-yl]sulfonylaze-tidine-1-carboxylate]
1 to 10	O=C(NC1(C(F)(F)F)CC1)N1CC(S(=O)(=O)N2CCC(c3nc4ccccc4[nH]3)CC2)C1 [Compound 300, 3-[4-(1H-benzimidazol-2-yl)piperidin-1-yl]sulfonyl-N-[1-(trifluoromethyl)cyclopropyl] azetidine-1-carboxamide]
0.1 to 1	CC(C)(C)OC(=O)N1CC(S(=O)(=O)N2CCC(c3ccccc3)CC2)C1 [Compound 301, tert-butyl 3-(4-phenylpiperidin-1-yl)sulfonylaze-tidine-1-carboxylate]
0.1 to 1	Cc1cc(Cl)ccc1C1CCN(S(=O)(=O)C2CN(C(=O)OC(C)(C)C)C2)CC1 [Compound 302, tert-butyl 3-[4-(4-chloro-2-methylphenyl)piperidin-1-yl]sulfonylaze-tidine-1-carboxylate]

IC50 [µM]	SMILES
0.1 to 1	CC(C)(C)OC(=O)N1CC(S(=O)(=O)N2CCC(c3ccc(C#N)cc3)CC2)C1 [Compound 303, tert-butyl 3-[4-(4-cyanophenyl)piperidin-1-yl]sulfonylaze-tidine-1-carboxylate]
0.1 to 1	CC(C)(C)OC(=O)N1CC(S(=O)(=O)N2CCC(c3ccc(Cl)cc3)CC2)C1 [Compound 304, tert-butyl 3-[4-(4-chlorophenyl)piperidin-1-yl]sulfonylaze-tidine-1-carboxylate]
0.1 to 1	CC(C)N(CC(=O)N1CC(S(=O)(=O)N2CCC(c3ccccc3)CC2)C1)C(C)C [Compound 306, 2-[di(propan-2-yl)amino]-1-[3-(4-phenylpiperidin-1-yl)sulfonylaze-tidin-1-yl]ethanone]
1 to 10	C[C@@H](C(=O)N1CC(S(=O)(=O)N2CCC(c3ccccc3)CC2)C1)N(C)C [Compound 307, 2-(dimethylamino)-1-[3-(4-phenyl-piperidin-1-yl)sulfonylaze-tidin-1-yl]propan-1-one]
0.01 to 0.1	Cc1noc(C)c1NC(=O)[C@H]1C[C@@H](S(=O)(=O)N2CCC(c3c[nH]c4ncccc34)CC2)C1 [Compound 309, cis-N-(3,5-dimethyl-1,2-oxazol-4-yl)-3-[4-(1H-pyrrolo [2,3-b]pyridin-3-yl)piperidin-1-yl]sulfonylcycl obutane-1-carboxamide]
0.1 to 1	Cc1noc(C)c1NC(=O)[C@H]1C[C@H](S(=O)(=O)N2CCC(c3c[nH]c4ncccc34)CC2)C1 [Compound 310, trans-N-(3,5-dimethyl-1,2-oxazol-4-yl)-3-[4-(1H-pyrrolo [2,3-b]pyridin-3-yl)piperidin-1-yl]sulfonylcycl obutane-1-carboxamide]
0.01 to 0.1	O=S(=O)(C1CN(c2nc(-c3ccccc3)cs2)C1)N1CCC(c2c[nH]c3ncccc23)CC1 [Compound 311, 4-phenyl-2-[3-[4-(1H-pyrrolo[2,3-b]pyridin-3-yl)piperidin-1-yl]sulfonylazetidin-1-yl]-1,3-thiazole]
0.01 to 0.1	O=S(=O)(C1CN(c2nc3ccccc3s2)C1)N1CCC(c2c[nH]c3ncccc23)CC1 [Compound 312, 2-[3-[4-(1H-pyrrolo[2,3-b]pyridin-3-yl)piperidin-1-yl]sulfonylaze-tidin-1-yl]-1,3-benzothiazole]
1 to 10	CN1CCC[C@H]1C(=O)N1CC(S(=O)(=O)N2CCC(c3ccccc3)CC2)C1 [Compound 315, [(2S)-1-methyl-pyrrolidin-2-yl]-[3-(4-phenylpiperidin-1-yl)sulfonylaze-tidin-1-yl]methanone]
1 to 10	Cc1noc(C)c1C(=O)N1CC(S(=O)(=O)N2CCC(c3ccccc3)CC2)C1 [Compound 316, (3,5-dimethyl-1,2-oxazol-4-yl)-[3-(4-phenylpiperidin-1-yl)sulfonylaze-tidin-1-yl]methanone]
0.1 to 1	Cc1cc(Cl)ccc1C1CCN(S(=O)(=O)C2CN(C(=O)CN(C(C)C)C(C)C)C2)CC1 [Compound 317, 1-[3-[4-(4-chloro-2-methylphenyl)piperidin-1-yl]sulfonylaze-tidin-l-yl]-2-[di(propan-2-yl)amino] ethanone]
1 to 10	Cc1cc(Cl)ccc1C1CCN(S(=O)(=O)C2CN(C(=O)[C@@H]3CCCN3C)C2)CC1 [Compound 318, [3-[4-(4-chloro-2-methylphenyl)piperidin-1-yl]sulfonylaze-tidin-1-yl]-[(2S)-1-methylpyrrolidin-2-yl]methanone]
0.1 to 1	O=C(OC1CCOCC1)N1CC(S(=O)(=O)N2CCC(c3ccc(Cl)cc3)CC2)C1 [Compound 320, oxan-4-yl 3-[4-(4-chlorophenyl)piperidin-1-yl]sulfonylaze-tidine-1-carboxylate]
0.01 to 0.1	CC(C)[C@H](CO)NC(=O)N1CC(S(=O)(=O)N2CCC(c3ccc(Cl)cc3)CC2)C1 [Compound 321, 3-[4-(4-chlorophenyl)piperidin-1-yl]sulfonyl-N-[(2R)-1-hydroxy-3-methylbutan-2-yl]azetidine-1-carboxamide]
0.01 to 0.1	Cc1noc(C)c1NC(=O)N1CC(S(=O)(=O)N2CCC(c3ccc(Cl)cc3)CC2)C1 [Compound 322, 3-[4-(4-chlorophenyl)piperidin-1-yl]sulfonyl-N-(3,5-dimethyl-1,2-oxazol-4-yl)azetidine-1-carboxamide]
0.01 to 0.1	CC(C)(C(=O)N1CC(S(=O)(=O)N2CCC(c3c[nH]c4ncccc34)CC2)C1)C(F)(F)F [Compound 323, 3,3,3-trifluoro-2,2-dimethyl-1-[3-[4-(1H-pyrrolo[2,3-b]pyridin-3-yl)piperidin-1-yl]sulfonylaze-tidin-1-yl]propan-1-one]
0.01 to 0.1	CC(C)N(CC(=O)N1CC(S(=O)(=O)N2CCC(c3ccc(C#N)cc3)CC2)C1)C(C)C [Compound 324, 4-[1-[1-[2-[di(propan-2-yl)amino]acetyl]azetidin-3-yl]sulfonylpiper-idin-4-yl]benzonitrile]
1 to 10	CN(C)CC(=O)N1CC(S(=O)(=O)N2CCC(c3c[nH]c4ncccc34)CC2)C1 [Compound 325, 2-(dimethylamino)-1-[3-[4-(1H-pyrrolo[2,3-b]pyridin-3-yl)piperidin-1-yl]sulfonylaze-tidin-1-yl]ethanone]
